Reference: ChEMBL document CHEMBL5604063, “ASAP - DENV-2 NS2B-NS3 protease fluorescence dose response” (2024)
Several values for one entry are separate records, joined by “and”; a condition that tells them apart may be missing. Equal entries are not always repeated.

Legend:
Genome polyprotein [1] = biological target: T1, Genome polyprotein (dengue virus type 2, UniProt P29990); type: functional, Thailand/16681/1984
Genome polyprotein [2] = biological target: T1, Genome polyprotein; type: functional, Thailand/16681/1984; remark: listed apart in the source

T1 sequence (P29990 1346-1475 limits assumed): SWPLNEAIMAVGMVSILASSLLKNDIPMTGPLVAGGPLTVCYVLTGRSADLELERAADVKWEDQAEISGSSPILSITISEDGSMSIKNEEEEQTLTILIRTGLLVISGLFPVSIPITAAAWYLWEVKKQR
T1 sequence (P29990 1476-2093 limits assumed): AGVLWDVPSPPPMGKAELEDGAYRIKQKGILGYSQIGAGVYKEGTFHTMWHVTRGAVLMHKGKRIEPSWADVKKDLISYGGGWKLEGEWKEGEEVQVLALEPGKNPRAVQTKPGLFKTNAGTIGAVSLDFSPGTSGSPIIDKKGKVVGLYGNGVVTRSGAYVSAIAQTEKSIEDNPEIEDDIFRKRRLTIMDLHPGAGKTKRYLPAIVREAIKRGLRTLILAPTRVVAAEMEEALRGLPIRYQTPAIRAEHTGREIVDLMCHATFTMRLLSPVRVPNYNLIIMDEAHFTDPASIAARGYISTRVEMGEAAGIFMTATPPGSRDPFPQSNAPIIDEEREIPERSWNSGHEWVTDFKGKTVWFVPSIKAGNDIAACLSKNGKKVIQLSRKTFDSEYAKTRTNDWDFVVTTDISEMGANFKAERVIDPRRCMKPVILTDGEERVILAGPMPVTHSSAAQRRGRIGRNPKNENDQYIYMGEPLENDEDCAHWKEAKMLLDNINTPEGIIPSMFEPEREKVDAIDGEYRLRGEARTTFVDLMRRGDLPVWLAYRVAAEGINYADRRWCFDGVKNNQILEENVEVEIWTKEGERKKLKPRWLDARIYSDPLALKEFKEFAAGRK

| Compound | IC50 (Genome polyprotein [1]) | IC50 (Genome polyprotein [2]) |
| --- | --- | --- |
| Cc1ncc(-c2cc(F)cc(C(=O)Nc3ccc4c(c3)CNC4)c2)o1 | > 99.5 µM | > 100 µM |
| O=C(Nc1cc(-c2cccnc2)ccn1)c1cc2n(n1)CCO2 | > 99.5 µM | > 100 µM |
| CO[C@H]1C[C@H](n2cc3c(C(=O)Nc4ccc5c(c4)CNC5)cc(Cl)cc3n2)C1 | > 99.5 µM | > 100 µM |
| O=C(Nc1cc(-c2cccnc2)ccn1)c1csc(C[C@H]2CCNC2)n1 | > 99.5 µM | > 100 µM |
| O=C(Nc1cc(-c2cccnc2)ccn1)c1cc2n(n1)CCC2 | > 99.5 µM | > 100 µM |
| CNC(=O)[C@H](Nc1cc(Cl)cc2[nH]ncc12)c1ccc2c(c1)CNC2 | > 99.5 µM | > 100 µM |
| Cc1c(C(=O)Nc2cc(-c3cccnc3)ccn2)cc(C2CCCC2)n1C | > 99.5 µM | > 100 µM |
| O=C(Nc1cc(-c2cccnc2)ccn1)c1csc(C[C@H]2CCCNC2)n1 | > 99.5 µM | > 100 µM |
| Cc1c(C(=O)Nc2cc(-c3cccnc3)ccn2)cnn1C1CC1 | > 99.5 µM | > 100 µM |
| O=C(Nc1ccc2c(c1)CN[C@H]2C[C@H](O)CO)c1cc(F)cc2[nH]ncc12 | 40.1 µM | 23.2 µM and 22.1 µM |
| O=C(Nc1cc([C@H]2CCOC2)ccn1)c1cc(F)cc2[nH]ccc12 | > 99.5 µM | > 100 µM |
| O=C(Nc1cc(-c2cccnc2)ccn1)c1cccc(C2CC2)c1 | > 99.5 µM | > 100 µM |
| NC[C@H]1OCCc2sc(C(=O)Nc3cc(-c4cccnc4)ccn3)cc21 | > 99.5 µM | > 100 µM |
| O=C(Nc1ccc2c(c1)CNC2)c1cc(Cl)cc2[nH]c(COc3ccccn3)nc12 | > 99.5 µM | 20.1 µM and 16.8 µM |
| CN(C)c1nc(-c2cc(F)cc(C(=O)Nc3ccc4c(c3)CNC4)c2)cs1 | > 99.5 µM | > 100 µM |
| O=C(Nc1cc([C@H]2CCOC2)ccn1)c1cc(F)cc2[nH]ncc12 | > 99.5 µM | > 100 µM |
| CCCn1cc2c(C(=O)Nc3ccc4c(c3)CNC4)cc(Cl)cc2n1 | > 99.5 µM | > 100 µM |
| O=C(Nc1cc([C@H]2CCOC2)ccn1)c1ccc2scnc2c1 | > 99.5 µM | > 100 µM |
| Cc1c(C(=O)Nc2cc(-c3cccnc3)ccn2)cc(-c2ccccc2)n1C | > 99.5 µM | > 100 µM |
| Cc1cc(C(=O)Nc2cc(-c3cccnc3)ccn2)c(C)n1C | > 99.5 µM | > 100 µM |
| O=C(Nc1cc(-c2cccnc2)ccn1)c1nnc(C2CC2)s1 | > 99.5 µM | > 100 µM |

| Compound | IC50 (Genome polyprotein [1]) | IC50 (Genome polyprotein [2]) |
| --- | --- | --- |
| O=C1CCc2c(cccc2C(=O)Nc2ccc3c(c2)CNC3)N1 | > 99.5 µM | > 100 µM |
| CCCCNC(=O)[C@H](Nc1ccc2c(c1)CNC2)c1cc(Cl)cc(C2CC2)c1 | > 99.5 µM | > 100 µM |
| O=C(Nc1cc(-c2cccnc2)ccn1)c1cn([C@H]2CCCNC2)nn1 | > 99.5 µM | > 100 µM |
| O=S(=O)(Nc1ccc2c(c1)CNC2)c1cccc2[nH]ncc12 | > 99.5 µM | > 100 µM |
| O=C(Nc1ccc2c(c1)CNC2)c1cc(F)cc(-c2cccnc2)c1 | > 99.5 µM | > 100 µM |
| O=C(NCC(F)F)[C@H](Nc1ccc2c(c1)CNC2)c1cc(Br)cc2[nH]ccc12 | > 99.5 µM | > 100 µM |
| O=C1Cc2c(cccc2C(=O)Nc2cc([C@H]3CCOC3)ccn2)N1 | > 99.5 µM | > 100 µM |
| O=C(Nc1ccc2c(c1)CNC2)c1cc(Cl)cc2[nH]c(-c3cnccc3O)nc12 | 37.1 µM | > 100 µM |
| O=C(Nc1cc(-c2cccnc2)ccn1)c1ccc(C2CC2)cc1 | > 99.5 µM | > 100 µM |
| O=C(Nc1ccc2c(c1)CNC2)c1cc(F)cc(-c2c[nH]c(=O)c(F)c2)c1 | > 99.5 µM | > 100 µM |
| COc1cc(C(=O)Nc2ccc3c(c2)CNC3)cc2cnn(C)c12 | > 99.5 µM | > 100 µM |
| Cc1oc(C2CC2)nc1C(=O)Nc1cc(-c2cccnc2)ccn1 | > 99.5 µM | > 100 µM |
| Cc1c(C(=O)Nc2cccc(-c3cccnc3)c2)cc(C2CC2)n1C | > 99.5 µM | > 100 µM |
| O=C(Nc1cc([C@H]2CCOC2)ccn1)c1cc(Cl)cc2[nH]ncc12 | > 99.5 µM | > 100 µM |
| CC(C)NC(=O)[C@H](Nc1ccc2c(c1)CNC2)c1cccc2cn[nH]c12 | > 99.5 µM | > 100 µM |
| O=C(Nc1cc2c(cc1C1CC1)CNC2)c1cc(F)cc2[nH]ncc12 | 70.9 µM | 62.5 µM |
| O=C(NCC(F)F)[C@H](Nc1ccc2c(c1)CNC2)c1cc(Cl)cc2[nH]ncc12 | > 99.5 µM | > 100 µM |
| Cn1ncc2c(C(=O)Nc3ccc4c(c3)CNC4)cc(Cl)cc21 | > 99.5 µM | > 100 µM |
| COCCNC(=O)[C@H](Nc1cccc([C@H]2CCOC2)c1)c1cc(F)cc2[nH]ccc12 | > 99.5 µM | > 100 µM |
| C=CC[C@H]1NCc2cc(NC(=O)c3cc(F)cc4c3CC(=O)N4)ccc21 | 31.9 µM | 31.9 µM and 23.6 µM |
| Cc1cnccc1-c1cc(NC(=O)c2cc(F)cc3[nH]ncc23)cc2c1CNC2 | > 99.5 µM | 65.4 µM |

| Compound | IC50 (Genome polyprotein [1]) | IC50 (Genome polyprotein [2]) |
| --- | --- | --- |
| O=C(Nc1cc([C@H]2CCOC2)ccn1)c1cc(Br)cc2[nH]ccc12 | > 99.5 µM | > 100 µM |
| O=C(Nc1ccc2c(c1)CNC2)c1ccc2ccncc2c1 | > 99.5 µM | > 100 µM |
| O=C(Nc1ccc2c(c1)CNC2)c1cc(Cl)cc2nn(C3CCC3)cc12 | > 99.5 µM | 89.2 µM |
| O=C(Nc1cc([C@H]2CCOC2)ccn1)c1cc(F)c2[nH]ccc2c1 | > 99.5 µM | > 100 µM |
| CSCCNC(=O)[C@H](Nc1ccc2c(c1)CNC2)c1cc(Cl)cc(C2CC2)c1 | > 99.5 µM | > 100 µM |
| CS(=O)(=O)N1CC[C@]2(C1)C(=O)Nc1cccc(C(=O)Nc3ccc4c(c3)CNC4)c12 | > 99.5 µM | > 100 µM |
| COc1ccc([C@H]2C[C@H](C)CN2C(=O)Nc2ccc3c(c2)CNC3)cc1 | > 99.5 µM | > 100 µM |
| Cc1c(C(=O)Nc2cc(-c3cccnc3)ccn2)cc(CC(C)(C)C)n1C | > 99.5 µM | > 100 µM |
| CSCCCNC(=O)[C@H](Nc1ccc2c(c1)CNC2)c1cc(Cl)cc(C2CC2)c1 | > 99.5 µM | > 100 µM |
| O=C(Nc1ccc2c(c1)CNC2)c1cc(F)cc(-c2ccnn2CC2CC2)c1 | > 99.5 µM | > 100 µM |
| CC(C)(C)c1noc2nc(C(=O)Nc3ccc4c(c3)CNC4)ccc12 | > 99.5 µM | > 100 µM |
| O=C(Nc1ccc2c(c1)CNC2)c1cc(F)cc2nn(-c3ccccn3)nc12 | 4.99 µM and 4.27 µM | 4.11 µM and 3.88 µM |
| O=C(Nc1cc(-c2cccnc2)ccn1)c1c[nH]c2ncccc12 | > 99.5 µM | > 100 µM |
| COCCCNC(=O)[C@H](Nc1ccc2c(c1)CNC2)c1cc(Cl)cc(C2CC2)c1 | > 99.5 µM | > 100 µM |
| Cc1c(C(=O)Nc2cccc(-c3ccccc3)c2)cc(C2CC2)n1C | > 99.5 µM | > 100 µM |
| O=C(Nc1ccc2c(c1)CNC2)c1ccc2c(Br)csc2c1 | 58.6 µM | > 100 µM |
| C=C[C@H]1NCc2cc(NC(=O)c3cc(F)cc4[nH]ncc34)ccc21 | 86.6 µM | 34 µM |
| CC(C)(C)OC(=O)N1Cc2ccc(NC(=O)c3ccc4c(Br)csc4c3)cc2C1 | > 99.5 µM | > 100 µM |
| Nc1nc2c(Br)cc(C(=O)Nc3ccc4c(c3)CNC4)cc2s1 | 28.2 µM | 51.9 µM and 37.3 µM |
| Cc1c(C(=O)Nc2cc(-c3ccccc3)ccn2)cc(C2CC2)n1C | > 99.5 µM | > 100 µM |
